# Experimental data: publication PMC9067936, “SHIP164 is a chorein motif lipid transfer protein that controls endosome–Golgi membrane traffic” (The Journal of Cell Biology, 2022)
# Target: T1, 3XFLAG-SHIP164Δ901–1099 (Homo sapiens, UniProt A0JNW5, DEL901-1099)
# T1 construct: gene BLTP3B; residues 901-1099 (predicted unstructured) deleted; N-terminal 3xFLAG tag kept; expressed in Expi293F; tail-to-tail dimer in vitro
# Experiment: native gel co-migration, NBD fluorescence calibrated with E-Syt2 standard curve
# Assay type: binding
# Conditions: 0.2 mM NBD-PE, 2 h on ice; labelled compound; stoichiometry estimate
# T1 sequence (A0JNW5 with tags, fused parts or gaps DEL901-1099): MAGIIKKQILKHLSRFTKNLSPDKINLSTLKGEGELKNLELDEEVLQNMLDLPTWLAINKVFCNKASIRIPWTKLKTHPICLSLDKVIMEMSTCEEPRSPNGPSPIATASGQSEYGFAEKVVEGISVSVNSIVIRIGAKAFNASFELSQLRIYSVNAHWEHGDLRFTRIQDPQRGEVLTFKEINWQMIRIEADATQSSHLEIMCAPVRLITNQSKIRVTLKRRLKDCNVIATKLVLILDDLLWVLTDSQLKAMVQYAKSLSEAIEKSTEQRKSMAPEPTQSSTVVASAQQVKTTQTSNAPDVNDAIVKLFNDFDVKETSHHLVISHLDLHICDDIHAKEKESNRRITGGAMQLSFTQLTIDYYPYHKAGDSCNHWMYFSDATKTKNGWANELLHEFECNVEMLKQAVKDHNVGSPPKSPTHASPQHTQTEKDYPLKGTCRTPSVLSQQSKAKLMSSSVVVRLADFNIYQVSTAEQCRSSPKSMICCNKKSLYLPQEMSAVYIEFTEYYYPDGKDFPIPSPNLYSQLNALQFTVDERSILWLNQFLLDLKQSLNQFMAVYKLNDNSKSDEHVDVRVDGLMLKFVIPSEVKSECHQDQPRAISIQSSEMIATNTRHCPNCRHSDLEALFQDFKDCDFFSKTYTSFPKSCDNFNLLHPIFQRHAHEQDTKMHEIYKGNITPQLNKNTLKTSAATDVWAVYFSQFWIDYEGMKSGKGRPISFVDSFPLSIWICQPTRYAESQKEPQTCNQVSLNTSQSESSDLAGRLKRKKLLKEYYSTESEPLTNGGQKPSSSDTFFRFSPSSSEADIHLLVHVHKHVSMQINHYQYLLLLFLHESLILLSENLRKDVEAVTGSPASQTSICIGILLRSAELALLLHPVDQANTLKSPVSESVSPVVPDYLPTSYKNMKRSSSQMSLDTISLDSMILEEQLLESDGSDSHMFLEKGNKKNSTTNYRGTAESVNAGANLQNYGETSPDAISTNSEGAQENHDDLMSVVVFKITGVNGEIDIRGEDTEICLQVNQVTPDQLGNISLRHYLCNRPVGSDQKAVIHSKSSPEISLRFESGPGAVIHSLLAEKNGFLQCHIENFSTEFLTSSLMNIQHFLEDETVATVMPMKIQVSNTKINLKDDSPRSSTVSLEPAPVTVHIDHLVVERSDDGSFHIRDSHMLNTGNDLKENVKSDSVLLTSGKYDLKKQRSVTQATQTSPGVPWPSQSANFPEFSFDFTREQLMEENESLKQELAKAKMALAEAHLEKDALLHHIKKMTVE
smiles,measurement,value
CCCCCCCC/C=C\CCCCCCCC(=O)OC[C@H](COP(=O)(O)OCCNc1ccc([N+](=O)[O-])c2nonc12)OC(=O)CCCCCCC/C=C\CCCCCCCC [NBD-PE],lipids per SHIP164 molecule,~ 8 lipids per protein molecule
